Patent US9872875B2, “Component and method for treating viral disease” (Institut Pasteur of Shanghai, Chinese Academy of Sciences, priority 2012, dated 2018)
Read-outs that look alike come from different tables or passages of the source.

Key:
EV71 [1] = assay: Inhibition of EV71 replication in RD cells at 0.1, 1, 10 and 100 μM (CPE, crystal violet); type: cell-based, Enterovirus 71
Experimental: Inhibitory effect of each P2X receptor antagonists and agonists on EV71 replication was measured at 0.1, 1, 10, and 100 μM. Specific procedures refer to “1” of Example 1. after infection, however, cells need to be incubated for 3˜4 days, stained with crystal violet, and observed under optical microscope to determine whether or not CPE (cytopathic effect) was present. In addition, the effect of compounds at each concentration on cytotoxicity to RD cells was determined. After culturing RD cells in various concentrations of compounds for 3˜4 days, stained with crystal violet, and observed under optical microscope to observe whether or not cell layer was damaged. Compounds capable of protecting cells from infection without damage of healthy cell layer can inhibit EV71 replication in RD cells.

EV71 [2] = assay: Effects of other antagonists and agonists on EV71 (Table 9); type: cell-based, Enterovirus 71; set-up: key: “NO” indicates there is negative
P2X1 receptor = biological target: T1, P2X1 receptor (Homo sapiens, UniProt P51575); details: cited from earlier work
T1 sequence (P51575 1-399): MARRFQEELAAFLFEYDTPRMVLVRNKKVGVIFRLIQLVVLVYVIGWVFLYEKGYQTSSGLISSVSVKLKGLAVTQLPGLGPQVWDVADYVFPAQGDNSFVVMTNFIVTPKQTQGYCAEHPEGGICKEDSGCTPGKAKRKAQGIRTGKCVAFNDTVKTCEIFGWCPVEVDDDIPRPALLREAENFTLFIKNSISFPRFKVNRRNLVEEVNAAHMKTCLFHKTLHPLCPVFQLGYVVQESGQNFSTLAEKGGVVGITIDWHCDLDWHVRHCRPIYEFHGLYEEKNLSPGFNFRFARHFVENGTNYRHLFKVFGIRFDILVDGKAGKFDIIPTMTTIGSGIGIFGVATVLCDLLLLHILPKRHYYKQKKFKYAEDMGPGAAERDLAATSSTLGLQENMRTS

P2X2 receptor = biological target: T2, P2X2 receptor (Homo sapiens, UniProt Q9UBL9); details: Table 8, antagonists; cited from earlier work
T2 sequence (Q9UBL9 1-471): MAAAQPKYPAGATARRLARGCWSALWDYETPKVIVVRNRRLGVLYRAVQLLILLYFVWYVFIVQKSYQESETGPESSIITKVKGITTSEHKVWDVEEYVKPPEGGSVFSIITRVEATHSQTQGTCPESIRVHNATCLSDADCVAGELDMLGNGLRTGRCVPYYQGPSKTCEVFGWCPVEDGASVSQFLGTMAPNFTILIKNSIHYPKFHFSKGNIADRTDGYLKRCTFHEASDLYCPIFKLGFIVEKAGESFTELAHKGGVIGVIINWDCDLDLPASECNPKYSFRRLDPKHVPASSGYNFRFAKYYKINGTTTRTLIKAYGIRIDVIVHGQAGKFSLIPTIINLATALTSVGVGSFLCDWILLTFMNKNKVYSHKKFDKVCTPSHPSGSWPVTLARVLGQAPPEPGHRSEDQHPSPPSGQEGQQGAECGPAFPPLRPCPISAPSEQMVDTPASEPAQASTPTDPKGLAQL

P2X3 receptor = biological target: T3, P2X3 receptor (Homo sapiens, UniProt P56373); details: cited from earlier work
T3 sequence (P56373 1-397): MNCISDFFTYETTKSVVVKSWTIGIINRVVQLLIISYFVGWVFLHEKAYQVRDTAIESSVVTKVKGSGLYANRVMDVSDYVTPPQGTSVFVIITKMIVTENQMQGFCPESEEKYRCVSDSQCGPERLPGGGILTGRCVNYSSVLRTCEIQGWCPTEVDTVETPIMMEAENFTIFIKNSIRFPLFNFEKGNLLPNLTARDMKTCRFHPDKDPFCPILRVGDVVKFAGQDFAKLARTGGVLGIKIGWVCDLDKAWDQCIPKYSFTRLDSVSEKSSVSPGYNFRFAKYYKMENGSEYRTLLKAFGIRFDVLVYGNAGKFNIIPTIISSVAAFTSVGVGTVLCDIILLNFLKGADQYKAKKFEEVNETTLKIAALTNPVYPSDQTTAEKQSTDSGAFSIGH

P2X5 receptor = P2X5 receptor (Homo sapiens, UniProt Q93086); details: Table 8, antagonists; cited from earlier work
Chain of P2X5 receptor (Q93086 whole entry): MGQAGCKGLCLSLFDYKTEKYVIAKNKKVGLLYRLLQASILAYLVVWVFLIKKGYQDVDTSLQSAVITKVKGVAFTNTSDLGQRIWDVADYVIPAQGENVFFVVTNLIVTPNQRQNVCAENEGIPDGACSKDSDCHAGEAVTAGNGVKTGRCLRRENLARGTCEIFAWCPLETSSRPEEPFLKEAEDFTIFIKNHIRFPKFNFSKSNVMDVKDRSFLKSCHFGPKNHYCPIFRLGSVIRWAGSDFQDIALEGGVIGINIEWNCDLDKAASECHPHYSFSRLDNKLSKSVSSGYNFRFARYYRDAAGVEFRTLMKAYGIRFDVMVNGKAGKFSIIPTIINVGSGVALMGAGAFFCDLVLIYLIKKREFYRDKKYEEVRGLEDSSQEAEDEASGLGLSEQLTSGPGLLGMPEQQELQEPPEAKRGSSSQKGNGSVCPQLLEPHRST

P2X7 receptor = biological target: T4, P2X7 receptor (Homo sapiens, UniProt Q99572); details: Table 8, antagonists; cited from earlier work
T4 sequence (Q99572 1-595): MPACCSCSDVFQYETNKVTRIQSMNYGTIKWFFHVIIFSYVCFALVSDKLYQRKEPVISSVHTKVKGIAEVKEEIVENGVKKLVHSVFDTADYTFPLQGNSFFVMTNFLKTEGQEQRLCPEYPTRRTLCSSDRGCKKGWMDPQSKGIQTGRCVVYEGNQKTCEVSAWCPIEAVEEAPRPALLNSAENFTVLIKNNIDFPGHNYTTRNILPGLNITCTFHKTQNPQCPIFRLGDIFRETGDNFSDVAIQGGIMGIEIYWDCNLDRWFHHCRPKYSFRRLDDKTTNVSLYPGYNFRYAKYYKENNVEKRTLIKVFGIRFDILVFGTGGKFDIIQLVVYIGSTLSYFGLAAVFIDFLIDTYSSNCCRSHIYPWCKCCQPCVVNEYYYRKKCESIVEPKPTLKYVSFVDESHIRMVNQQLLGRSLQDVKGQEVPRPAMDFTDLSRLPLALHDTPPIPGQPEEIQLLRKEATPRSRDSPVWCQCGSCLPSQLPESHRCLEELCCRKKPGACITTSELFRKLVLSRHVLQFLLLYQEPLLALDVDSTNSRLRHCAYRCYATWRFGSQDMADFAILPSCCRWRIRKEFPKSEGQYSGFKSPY

P2X2/3 = P2X2/3 (Homo sapiens, UniProt P56373+Q9UBL9); details: Table 9, antagonists; cited from earlier work
P2Y1 = P2Y1 (Homo sapiens, UniProt P47900); details: Table 9, antagonists; cell names P2Y1; cited from earlier work
Chain of P2Y1 (P47900 whole entry, species assumed): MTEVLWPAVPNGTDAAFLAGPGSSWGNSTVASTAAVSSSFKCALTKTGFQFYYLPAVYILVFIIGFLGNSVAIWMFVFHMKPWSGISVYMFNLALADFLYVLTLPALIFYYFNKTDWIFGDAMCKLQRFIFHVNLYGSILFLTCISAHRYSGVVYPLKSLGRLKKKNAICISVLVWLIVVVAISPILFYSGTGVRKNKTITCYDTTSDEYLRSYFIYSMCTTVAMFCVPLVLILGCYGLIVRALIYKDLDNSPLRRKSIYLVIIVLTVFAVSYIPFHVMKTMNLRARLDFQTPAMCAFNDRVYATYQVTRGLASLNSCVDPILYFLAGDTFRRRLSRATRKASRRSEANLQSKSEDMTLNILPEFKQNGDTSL

Molecule	inhibition of EV71 replication (statement in words) (EV71 [1])	Inhibition of EV71 replication (EV71 [1]; Table 8, antagonists)	EV71 Log10 reduction (EV71 [2])	P2X receptors 1 (P2X1 receptor; Table 8, antagonists)	P2X receptors 1 (P2X1 receptor; Table 9, antagonists)	P2X receptors 2 (P2X2 receptor)	P2X receptors 3 (P2X3 receptor; Table 8, antagonists)	P2X receptors 3 (P2X3 receptor; Table 9, antagonists)	P2X receptors 5 (P2X5 receptor)	P2X receptors 7 (P2X7 receptor)	Heteromultimer (P2X2/3)	P2Y (P2Y1)
trinitrophenol-ATP [TNP-ATP]	can also inhibit EV71 replication	+ (+: inhibitory concentration >300 nM)	NO	+++ (+++: inhibitory concentration <10 nM)	✓ ✓ ✓ (✓ ✓ ✓ activating concentration <10 nM)	+ (+: inhibitory concentration >300 nM)	+++ (+++: inhibitory concentration <10 nM)	✓ ✓ ✓ (✓ ✓ ✓ activating concentration <10 nM)	+ (+: inhibitory concentration >300 nM)	+ (+: inhibitory concentration >300 nM)	✓ ✓ ✓ (✓ ✓ ✓ activating concentration <10 nM)	
CNc1ncnc2c1ncn2[C@H]1C[C@H](OP(=O)(O)O)[C@@H](COP(=O)(O)O)O1 [MRS 2179]			NO		✓ (✓ activating concentration >300 nM)			✓ (✓ activating concentration >300 nM)				✓ ✓ P2Y1 (✓ ✓ activating concentration 10 nM-300 nM)
